From US9428514B2, “Bromodomain inhibitors” (AbbVie Inc., priority 2013, dated 2016) come the findings set out here.

The experiment relates to breast cancer cell line MX-1. Put plainly: MX-1 cell line proliferation assay (3-day, Cell Titer Glo). The format is cell-based. The settings on record: Homo sapiens, MX1, MX-1 cells, 72 hours, read-out: Cellular proliferation: EC50. The protocol: The impact of compounds of the Examples on cancer cell proliferation was determined using the breast cancer cell line MX-1 (ATCC) in a 3-day proliferation assay. MX-1 cells were maintained in RPMI supplemented with 10% FBS at 37° C. and an atmosphere of 5% CO2. For compound testing, MX-1 cells were plated in 96-well black bottom plates at a density of 5000 cells/well in 90 μL of culture media and incubated at 37° overnight to allow cell adhesion and spreading. Compound dilution series were prepared in DMSO via a 3-fold serial dilution from 3 mM to […]. The DMSO dilution series were then diluted 1:100 in phosphate buffered saline, and 10 μL of the resulted solution were added to the appropriate wells of the MX-1 cell plate. The final compound concentrations in the wells were 3, 1, 0.3, 0.1, 0.03, 0.01, 0.003, 0.001, 0.0003, 0.0001, and 0.00003 μM.
Luminescence readings from the Cell Titer Glo assay were normalized to the DMSO treated cells and analyzed using the GraphPad Prism software with sigmoidal curve fitting to obtain EC50s. The minimum significant ratio (MSR) was determined to evaluate assay reproducibility (Eastwood et al., (2006) J Biomol Screen, 11: 253-261). The overall MSR was determined to be 2.1 and a moving MSR (last six run MSR overtime) has been <2. The EC50 values are reported in Table 1 for the indicated compounds.
With `CCOc1cc(=O)n(C)cc1-c1cc(N(CC2CC2)S(=O)(=O)CC)ccc1Oc1ccc(F)cc1F` [Example 72, N-(cyclopropylmethyl)-N-[4-(2,4-difluorophenoxy)-3-(4-ethoxy-1-methyl-6-oxo-1,6-dihydropyridin-3-yl)phenyl]ethanesulfonamide], the EC50 came out at 233 nM.

On to `CCOc1cc(=O)n(C)cc1-c1cc(N(CC2CC2)S(=O)(=O)Cc2ccccc2)ccc1Oc1ccc(F)cc1F` [Example 76, N-(cyclopropylmethyl)-N-[4-(2,4-difluorophenoxy)-3-(4-ethoxy-1-methyl-6-oxo-1,6-dihydropyridin-3-yl)phenyl]-1-phenylmethanesulfonamide], for which the EC50 is greater than 1000 nM. With `CCOc1cc(=O)n(C)cc1-c1cc(NC(=O)Cc2ccccc2OC)ccc1Oc1ccc(F)cc1F` [Example 46, N-[4-(2,4-difluorophenoxy)-3-(4-ethoxy-1-methyl-6-oxo-1,6-dihydropyridin-3-yl)phenyl]-2-(2-methoxyphenyl)acetamide] the figure was 449 nM; with `CCOc1cc(=O)n(C)cc1-c1cc(NC(=O)Cc2ccc(C)nc2)ccc1Oc1ccc(F)cc1F` [Example 5, N-[4-(2,4-difluorophenoxy)-3-(4-ethoxy-1-methyl-6-oxo-1,6-dihydropyridin-3-yl)phenyl]-2-(6-methylpyridin-3-yl)acetamide], 681 nM.

`CCOc1cc(=O)n(C)cc1-c1cc(N(Cc2ccccc2)S(=O)(=O)Cc2ccccc2)ccc1Oc1ccc(F)cc1F` [Example 77, N-benzyl-N-[4-(2,4-difluorophenoxy)-3-(4-ethoxy-1-methyl-6-oxo-1,6-dihydropyridin-3-yl)phenyl]-1-phenylmethanesulfonamide]: the EC50 is greater than 1000 nM. With `CCOc1cc(=O)n(C)cc1-c1cc(N(C)C(=O)Cc2cc(F)ccc2Cl)ccc1Oc1ccc(F)cc1F` [Example 71, 2-(2-chloro-5-fluorophenyl)-N-[4-(2,4-difluorophenoxy)-3-(4-ethoxy-1-methyl-6-oxo-1,6-dihydropyridin-3-yl)phenyl]-N-methylacetamide] the figure was greater than 1000 nM; with `CCOc1cc(=O)n(C)cc1-c1cc(NCc2ncccc2C)ccc1Oc1ccc(F)cc1F` [Example 12, 5-[2-(2,4-difluorophenoxy)-5-{[(3-methylpyridin-2-yl)methyl]amino}phenyl]-4-ethoxy-1-methylpyridin-2(1H)-one], 1020 nM. With `CCOc1cc(=O)n(C)cc1-c1cc(NC(=O)COc2ccc(C)cc2)ccc1Oc1ccc(F)cc1F` [Example 33, N-[4-(2,4-difluorophenoxy)-3-(4-ethoxy-1-methyl-6-oxo-1,6-dihydropyridin-3-yl)phenyl]-2-(4-methylphenoxy)acetamide] the figure was 464 nM; with `CCOc1cc(=O)n(C)cc1-c1cc(NCCCC(=O)OC)ccc1Oc1ccc(F)cc1F` [Example 14, methyl 4-{[4-(2,4-difluorophenoxy)-3-(4-ethoxy-1-methyl-6-oxo-1,6-dihydropyridin-3-yl)phenyl]amino}butanoate], 111 nM; with `CCOc1cc(=O)n(C)cc1-c1cc(N(CC2CC2)S(=O)(=O)Cc2cc(F)ccc2Cl)ccc1Oc1ccc(F)cc1F` [Example 66, 1-(2-chloro-5-fluorophenyl)-N-(cyclopropylmethyl)-N-[4-(2,4-difluorophenoxy)-3-(4-ethoxy-1-methyl-6-oxo-1,6-dihydropyridin-3-yl)phenyl]methanesulfonamide], greater than 1000 nM.
